Measured values as given in paper PMC6934184, “Selective DNA-PKcs inhibition extends the therapeutic index of localized radiotherapy and chemotherapy” (The Journal of Clinical Investigation, 2019).
Values joined by “and” are separate entries in the source; they are usually repeats but may differ in a detail not shown here. Equal values may be shown once.

Tests used:
A549 cells = test: γH2AX and 53BP1 foci after 10 Gy; type: cell-based, human; settings: 5 μM, 5 hours after irradiation
Experimental: (§1) Cell line γH2AX and 53BP1 foci immunofluorescence and quantitation
(§2) Cells grown on coverslips or in 96-well plates were treated with 1 or 5 µM NU5455 or DMSO 1 hour prior to irradiation (0, 2.5 or 10 Gy) using an RS 320 X-ray Research System (Gulmay Medical). At set timepoints (15 or 30 minutes, or 1, 4, 5, 6, or 24 hours post-irradiation), cells were washed and fixed in methanol or 3% paraformaldehyde (PFA). Cells were blocked and permeabilized in 1% (v/v) goat serum/1% (w/v) BSA/0.1% (v/v) Triton X100 or 0.1% (v/v) Triton X100 containing 10% (w/v) dried milk powder and 2% (w/v) bovine serum albumin, followed by incubation with antibodies against γH2AX (JBW301, Millipore #05-636) and/or 53BP1 (Cell Signaling #4937). Cells were then washed and incubated with Alexa Fluor 488 goat anti-mouse and/or Alexa Fluor 568 goat anti -rabbit antibodies (A11001 or A11011 respectively, Invitrogen). In A549 and Calu-6, cells were Hoechst stained (5 µg/ml), and the average numbers of γH2AX and 53BP1 foci per cell were quantified from 400 nuclei per sample using an In Cell analyzer 1000 (GE Healthcare). For MCF7 cells, coverslips were mounted using Vectashield mounting medium with DAPI (Vector Labs) and imaged using a Leica TCS SPE confocal fluorescence microscope. Total fluorescence intensity was determined using ImagePro Plus 5.0 software (Media Cybernetics).
(§3) Clonogenic survival assays […]

Calu-6 cells = test: γH2AX and 53BP1 foci after 10 Gy; type: cell-based, human; settings: 5 μM, 5 hours after irradiation
Experimental: as §1, §2, §3

mTOR = mTOR (Homo sapiens, UniProt P42345); test: SelectScreen Profiling IC50; type: biochemical
Experimental: (§4) The in vitro kinase selectivity of NU5455 was determined using the SelectScreen Broad Assay Panel (Thermo Fisher Scientific) involving activity and binding assays (Supplemental Table 1). […] Class IA PI3Ks were measured using the p85α subunit.
(§5) PI3K Kinase NU5455 IC (nM) Fold selectivity
(§6) Supplemental Table 2. NU5455 potency and selectivity across the PI3K kinase family.
(§7) µM NU5455 for DNA-PK versus other PIKK and PI3K family members was assessed by SelectScreen Profiling (Life Technologies). The
(§8) ATP concentration was the Kmapp except for * where the ATP concentration was 10 μM (mean ± SEM, n=4-7).

ATR = ATR (Homo sapiens, UniProt Q13535); test: SelectScreen Profiling IC50; type: biochemical
Experimental: as §4, §5, §6, §7, §8

PI3K-C2β = PI3K-C2β (Homo sapiens, UniProt O00750); test: SelectScreen Profiling IC50; type: biochemical; settings: ATP 10 μM
Experimental: as §4, §5, §6, §7, §8

p110γ = p110γ (Homo sapiens, UniProt P48736); test: SelectScreen Profiling IC50; type: biochemical
Experimental: as §4, §5, §6, §7, §8

p110α = p110α (Homo sapiens, UniProt P42336); test: SelectScreen Profiling IC50; type: biochemical
p110α, sequence (P42336 whole entry): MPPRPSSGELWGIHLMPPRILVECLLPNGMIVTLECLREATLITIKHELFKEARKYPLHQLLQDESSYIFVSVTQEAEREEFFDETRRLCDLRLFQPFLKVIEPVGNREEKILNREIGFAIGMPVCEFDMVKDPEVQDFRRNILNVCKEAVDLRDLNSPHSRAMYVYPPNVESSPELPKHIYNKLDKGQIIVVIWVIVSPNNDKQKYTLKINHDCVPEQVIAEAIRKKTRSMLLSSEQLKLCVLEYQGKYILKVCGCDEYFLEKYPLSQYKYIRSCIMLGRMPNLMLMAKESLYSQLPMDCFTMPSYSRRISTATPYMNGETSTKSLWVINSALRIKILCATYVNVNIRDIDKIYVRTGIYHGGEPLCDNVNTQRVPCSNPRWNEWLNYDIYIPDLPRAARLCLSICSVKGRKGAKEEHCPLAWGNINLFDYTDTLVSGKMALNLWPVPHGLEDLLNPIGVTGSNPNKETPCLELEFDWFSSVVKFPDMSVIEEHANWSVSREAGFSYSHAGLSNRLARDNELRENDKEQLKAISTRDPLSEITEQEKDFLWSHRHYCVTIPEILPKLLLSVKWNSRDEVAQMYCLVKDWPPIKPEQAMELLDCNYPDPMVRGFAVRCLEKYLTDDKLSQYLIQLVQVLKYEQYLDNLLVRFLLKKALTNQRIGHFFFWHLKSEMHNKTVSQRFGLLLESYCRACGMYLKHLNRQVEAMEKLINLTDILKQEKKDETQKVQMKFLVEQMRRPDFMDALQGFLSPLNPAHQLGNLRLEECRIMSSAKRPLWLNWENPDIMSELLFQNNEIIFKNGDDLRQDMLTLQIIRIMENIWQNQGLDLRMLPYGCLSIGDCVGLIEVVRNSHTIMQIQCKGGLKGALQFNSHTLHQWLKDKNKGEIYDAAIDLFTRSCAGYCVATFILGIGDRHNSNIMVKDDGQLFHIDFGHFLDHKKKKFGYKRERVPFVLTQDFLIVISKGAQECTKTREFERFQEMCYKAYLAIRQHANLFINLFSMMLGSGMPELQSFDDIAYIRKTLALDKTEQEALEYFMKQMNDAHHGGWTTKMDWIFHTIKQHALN
p110α, sequence (P27986 whole entry partner): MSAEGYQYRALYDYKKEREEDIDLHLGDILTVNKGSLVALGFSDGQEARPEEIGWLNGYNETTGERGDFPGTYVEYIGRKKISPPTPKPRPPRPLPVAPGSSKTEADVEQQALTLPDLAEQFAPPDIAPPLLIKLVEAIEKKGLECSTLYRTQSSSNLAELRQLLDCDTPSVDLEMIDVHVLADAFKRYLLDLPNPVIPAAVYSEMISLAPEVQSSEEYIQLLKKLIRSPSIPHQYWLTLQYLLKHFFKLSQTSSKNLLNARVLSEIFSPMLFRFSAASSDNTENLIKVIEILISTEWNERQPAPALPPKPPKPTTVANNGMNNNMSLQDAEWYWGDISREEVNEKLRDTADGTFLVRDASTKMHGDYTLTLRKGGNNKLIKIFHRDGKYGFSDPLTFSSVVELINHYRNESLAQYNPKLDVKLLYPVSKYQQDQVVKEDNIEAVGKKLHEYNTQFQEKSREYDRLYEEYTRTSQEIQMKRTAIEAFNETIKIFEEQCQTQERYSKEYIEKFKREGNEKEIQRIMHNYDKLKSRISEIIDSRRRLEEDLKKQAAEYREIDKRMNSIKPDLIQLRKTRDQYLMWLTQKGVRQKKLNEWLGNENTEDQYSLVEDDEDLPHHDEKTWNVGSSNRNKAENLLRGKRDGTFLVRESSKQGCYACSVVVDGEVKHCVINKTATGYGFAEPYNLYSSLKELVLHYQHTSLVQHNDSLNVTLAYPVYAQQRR
Experimental: as §4, §5, §6, §7, §8

p110β = p110β (Homo sapiens, UniProt P42338); test: SelectScreen Profiling IC50; type: biochemical
Experimental: as §4, §5, §6, §7, §8

ATM = ATM (Homo sapiens, UniProt Q13315); test: SelectScreen Profiling IC50; type: biochemical
ATM, sequence (Q13315 whole entry): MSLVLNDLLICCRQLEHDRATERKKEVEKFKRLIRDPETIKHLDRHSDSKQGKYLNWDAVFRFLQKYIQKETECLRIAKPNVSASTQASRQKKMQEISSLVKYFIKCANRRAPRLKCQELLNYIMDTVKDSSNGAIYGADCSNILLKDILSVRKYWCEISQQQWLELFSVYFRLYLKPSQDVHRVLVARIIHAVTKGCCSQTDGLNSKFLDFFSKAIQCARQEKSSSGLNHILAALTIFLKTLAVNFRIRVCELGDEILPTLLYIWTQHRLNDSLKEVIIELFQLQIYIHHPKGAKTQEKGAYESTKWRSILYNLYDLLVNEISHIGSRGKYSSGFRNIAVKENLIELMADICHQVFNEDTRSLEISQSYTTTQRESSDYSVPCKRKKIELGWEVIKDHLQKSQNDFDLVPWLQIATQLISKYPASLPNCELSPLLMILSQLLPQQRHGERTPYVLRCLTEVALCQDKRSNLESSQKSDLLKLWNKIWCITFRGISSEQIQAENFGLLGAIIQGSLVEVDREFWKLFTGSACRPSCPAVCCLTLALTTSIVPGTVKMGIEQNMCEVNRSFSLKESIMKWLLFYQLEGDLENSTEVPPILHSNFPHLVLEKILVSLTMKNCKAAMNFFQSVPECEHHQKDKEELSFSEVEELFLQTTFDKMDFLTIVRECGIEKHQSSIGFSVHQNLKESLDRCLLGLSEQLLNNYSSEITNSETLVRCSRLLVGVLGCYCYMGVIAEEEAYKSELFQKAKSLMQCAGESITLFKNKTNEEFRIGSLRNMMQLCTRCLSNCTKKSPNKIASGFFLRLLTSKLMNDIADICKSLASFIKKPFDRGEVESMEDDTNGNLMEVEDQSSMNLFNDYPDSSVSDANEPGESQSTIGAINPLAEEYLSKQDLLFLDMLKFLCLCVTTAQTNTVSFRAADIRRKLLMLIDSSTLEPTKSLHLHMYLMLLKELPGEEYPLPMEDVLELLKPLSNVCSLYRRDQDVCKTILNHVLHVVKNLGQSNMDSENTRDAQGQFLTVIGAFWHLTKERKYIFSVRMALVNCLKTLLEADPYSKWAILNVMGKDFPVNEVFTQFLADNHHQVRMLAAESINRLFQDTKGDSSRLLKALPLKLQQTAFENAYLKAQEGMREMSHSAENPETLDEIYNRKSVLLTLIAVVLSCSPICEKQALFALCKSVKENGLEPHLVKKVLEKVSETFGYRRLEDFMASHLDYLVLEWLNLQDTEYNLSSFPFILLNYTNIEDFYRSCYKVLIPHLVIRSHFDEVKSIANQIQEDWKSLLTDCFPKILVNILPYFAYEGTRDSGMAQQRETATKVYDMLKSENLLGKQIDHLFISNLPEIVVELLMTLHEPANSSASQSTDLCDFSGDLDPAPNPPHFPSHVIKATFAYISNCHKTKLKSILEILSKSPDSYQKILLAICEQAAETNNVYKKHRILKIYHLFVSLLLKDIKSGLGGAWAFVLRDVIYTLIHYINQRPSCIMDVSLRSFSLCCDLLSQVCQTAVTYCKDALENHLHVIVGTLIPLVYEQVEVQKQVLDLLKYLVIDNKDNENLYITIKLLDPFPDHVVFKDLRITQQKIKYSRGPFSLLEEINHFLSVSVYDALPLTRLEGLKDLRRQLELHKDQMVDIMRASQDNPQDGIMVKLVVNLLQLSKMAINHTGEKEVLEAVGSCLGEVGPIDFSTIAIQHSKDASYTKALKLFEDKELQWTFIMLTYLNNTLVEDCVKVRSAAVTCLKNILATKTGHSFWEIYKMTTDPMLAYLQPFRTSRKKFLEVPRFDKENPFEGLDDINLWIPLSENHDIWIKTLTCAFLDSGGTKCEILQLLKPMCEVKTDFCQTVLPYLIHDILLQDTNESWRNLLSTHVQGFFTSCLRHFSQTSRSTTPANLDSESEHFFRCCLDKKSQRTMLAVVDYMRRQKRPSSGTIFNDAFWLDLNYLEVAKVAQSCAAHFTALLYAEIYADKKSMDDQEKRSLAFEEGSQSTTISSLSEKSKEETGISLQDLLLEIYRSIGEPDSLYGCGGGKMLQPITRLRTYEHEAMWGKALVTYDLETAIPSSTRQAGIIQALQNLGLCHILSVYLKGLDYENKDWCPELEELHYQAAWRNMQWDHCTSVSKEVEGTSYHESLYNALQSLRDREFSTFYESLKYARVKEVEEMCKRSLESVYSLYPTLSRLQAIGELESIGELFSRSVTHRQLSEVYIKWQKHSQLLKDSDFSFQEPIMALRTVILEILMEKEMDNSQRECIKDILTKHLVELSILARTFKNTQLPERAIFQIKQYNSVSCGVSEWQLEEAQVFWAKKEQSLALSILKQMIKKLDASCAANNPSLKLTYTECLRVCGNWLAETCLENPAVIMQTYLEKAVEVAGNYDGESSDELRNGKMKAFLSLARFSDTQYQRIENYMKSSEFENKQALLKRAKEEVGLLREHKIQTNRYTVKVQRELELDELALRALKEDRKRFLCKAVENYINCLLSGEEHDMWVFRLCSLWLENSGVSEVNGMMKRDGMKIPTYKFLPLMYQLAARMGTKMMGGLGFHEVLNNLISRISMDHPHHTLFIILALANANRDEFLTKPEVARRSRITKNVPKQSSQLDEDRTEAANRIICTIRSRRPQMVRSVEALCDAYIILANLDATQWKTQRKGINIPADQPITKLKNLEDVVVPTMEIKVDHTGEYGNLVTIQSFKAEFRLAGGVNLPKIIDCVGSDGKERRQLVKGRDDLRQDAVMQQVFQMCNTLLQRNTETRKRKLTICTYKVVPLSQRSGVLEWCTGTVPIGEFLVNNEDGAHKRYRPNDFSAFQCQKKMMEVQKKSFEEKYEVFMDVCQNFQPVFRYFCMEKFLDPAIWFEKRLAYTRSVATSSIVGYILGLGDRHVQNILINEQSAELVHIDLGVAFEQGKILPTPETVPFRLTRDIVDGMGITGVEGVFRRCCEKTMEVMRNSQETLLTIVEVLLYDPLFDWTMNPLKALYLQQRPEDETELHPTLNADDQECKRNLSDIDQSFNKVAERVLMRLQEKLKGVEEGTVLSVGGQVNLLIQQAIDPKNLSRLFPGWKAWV
Experimental: as §4, §5, §6, §7, §8

p110δ = p110δ (Homo sapiens, UniProt O00329); test: SelectScreen Profiling IC50; type: biochemical
Experimental: as §4, §5, §6, §7, §8

DNA-PK = DNA-PK (Homo sapiens, UniProt P78527); test: SelectScreen Profiling IC50; type: biochemical; settings: cell-free; ATP Km app; mean ± SEM, n=4-7; read-out: NU5455 IC50
Experimental: as §4, §5, §6, §7, §8

Vps34 = Vps34 (Homo sapiens, UniProt Q8NEB9); test: SelectScreen Profiling IC50; type: biochemical
Experimental: as §4, §5, §6, §7, §8

[1] = cell-free, ATP Km app, mean ± SEM, read-out: NU5455 IC50
[2] = cell-free, ATP Km app, read-out: NU5455 IC50
[3] = cell-free, ATP Km app, p85α subunit, mean ± SEM, read-out: NU5455 IC50

## CN(C(=O)CN1CCOCC1)c1ccc2sc3c(-c4cccc5c(=O)cc(N6CC7CCC(C6)O7)oc45)cccc3c2c1 [NU5455]
A549 cells
  number of colocalized γH2AX and 53BP1 foci: significant increase
Calu-6 cells
  number of colocalized γH2AX and 53BP1 foci: significant increase
mTOR; [1]
  IC50: 4.06 ± 1.12 µM
mTOR; versus mTOR
  Fold selectivity for DNA-PK: 495 fold
ATR; [2]
  IC50: > 10 µM
ATR; versus ATR
  Fold selectivity for DNA-PK: > 1220 fold and > 1200 fold
PI3K-C2β; cell-free, mean ± SEM, read-out: NU5455 IC50
  IC50: 1.96 ± 0.424 µM
PI3K-C2β; versus PI3K-C2β
  Fold selectivity for DNA-PK: 239 fold
p110γ; [2]
  IC50: > 10 µM
p110γ; versus p110γ
  Fold selectivity for DNA-PK: > 1220 fold
p110α; [3]
  IC50: 1.87 ± 0.216 µM
p110α; versus p110α (PI3Kα)
  Fold selectivity for DNA-PK: 228 fold
p110β; [3]
  IC50: 9.32 ± 1.25 µM
p110β; versus p110β
  Fold selectivity for DNA-PK: 1137 fold
ATM; [2]
  IC50: > 10 µM
ATM; versus ATM
  Fold selectivity for DNA-PK: > 1220 fold and > 1200 fold
p110δ; [3]
  IC50: 0.276 ± 0.022 µM
p110δ; versus p110δ (PI3Kδ)
  Fold selectivity for DNA-PK: 33.7 fold
DNA-PK
  IC50: 0.0082 ± 0.002 µM
Vps34; [1]
  IC50: 0.071 ± 0.019 µM
Vps34; versus Vps34
  Fold selectivity for DNA-PK: 8.7 fold
